Reference: ChEMBL document CHEMBL4308841, “Synthesis, in vitro antiproliferative activity, and kinase inhibitory effects of pyrazole-containing diarylureas and diarylamides” (Eur J Med Chem, 2018)

Assays:
[1] = system: HOP-92; experiment: Growth inhibition of human HOP92 cells incubated for 48 hrs by sulforhodamine B assay; format: functional, cell-based; settings: HOP-92, 48 h
[2] = system: TK-10; experiment: Growth inhibition of human TK10 cells incubated for 48 hrs by sulforhodamine B assay; format: functional, cell-based; settings: TK-10, 48 h
[3] = system: RAW264.7; experiment: Cytotoxicity against mouse RAW264.7 cells by MTT assay; format: cell-based
[4] = molecular target: Serine/threonine-protein kinase A-Raf (Homo sapiens) (UniProt P10398); experiment: Inhibition of human ARAF at 10 uM using MEK1 (K97R) as substrate after 40 mins in presence of [gamma33P]ATP by scintillation counting method relative to control
[5] = molecular target: Mast/stem cell growth factor receptor Kit (Homo sapiens) (UniProt P10721); experiment: Inhibition of human c-KIT at 10 uM using poly[Glu:Tyr] (4:1) as substrate after 40 mins in presence of [gamma33P]ATP by scintillation counting method relative to control
[6] = molecular target: RAF proto-oncogene serine/threonine-protein kinase (Homo sapiens) (UniProt P04049); experiment: Inhibition of human c-RAF at 10 uM using MEK1 (K97R) as substrate after 40 mins in presence of [gamma33P]ATP by scintillation counting method relative to control
[7] = molecular target: DNA-dependent protein kinase catalytic subunit (Homo sapiens) (UniProt P78527); experiment: Inhibition of human DNAPK at 10 uM using EPPLSQEAFADLWKK as substrate after 40 mins in presence of [gamma33P]ATP by scintillation counting method relative to control
[8] = molecular target: Epidermal growth factor receptor (Homo sapiens) (UniProt P00533); experiment: Inhibition of human EGFR at 10 uM using poly[Glu:Tyr] (4:1) as substrate after 40 mins in presence of [gamma33P]ATP by scintillation counting method relative to control
[9] = molecular target: Tyrosine-protein kinase JAK1 (Homo sapiens) (UniProt P23458); experiment: Inhibition of human JAK1 at 10 uM using poly[Glu:Tyr] (4:1) as substrate after 40 mins in presence of [gamma33P]ATP by scintillation counting method relative to control
[10] = molecular target: Dual specificity mitogen-activated protein kinase kinase 1 (Homo sapiens) (UniProt Q02750); experiment: Inhibition of human MEK1 at 10 uM using ERK2 (K52R) as substrate after 40 mins in presence of [gamma33P]ATP by scintillation counting method relative to control
[11] = molecular target: PI3-kinase p110-alpha/p85-alpha (Homo sapiens) (UniProt P27986+P42336); experiment: Inhibition of human PI3K p110a/p85a at 10 uM using PI(4,5)P2:PS as substrate after 40 mins in presence of [gamma33P]ATP by scintillation counting method relative to control; format: protein-complex assay
[12] = system: Serine/threonine-protein kinase B-raf (Homo sapiens), P15056 [V600E]; experiment: Inhibition of human BRAF V600E mutant at 10 uM using MEK1 (K97R) as substrate after 40 mins in presence of [gamma33P]ATP by scintillation counting method relative to control
[13] = molecular target: Serine/threonine-protein kinase B-raf (Homo sapiens, UniProt P15056, V600E); experiment: Inhibition of human BRAF V600E mutant using MEK1 (K97R) as substrate after 40 mins in presence of [gamma33P]ATP by scintillation counting method
[14] = system: RPMI-8226; experiment: Induction of apoptosis in human RPMI8226 cells assessed as increase in caspase 3/7 level at 10 uM relative to control; format: functional
[15] = system: HOP-92; experiment: Growth inhibition of human HOP92 cells assessed as cell growth at 0.01 uM incubated for 48 hrs by sulforhodamine B assay relative to control; format: functional; settings: HOP-92, 48 h, read-out: Activity
[16] = system: HOP-92; experiment: Growth inhibition of human HOP92 cells assessed as cell growth at 1 uM incubated for 48 hrs by sulforhodamine B assay relative to control; format: functional; settings: HOP-92, 48 h, read-out: Activity
[17] = system: TK-10; experiment: Growth inhibition of human TK10 cells assessed as cell growth at 1 uM incubated for 48 hrs by sulforhodamine B assay relative to control; format: functional; settings: TK-10, 48 h, read-out: Activity
[18] = read-out: LC50 (the source's name)
[19] = read-out: pLC50 (the source's name) (converted)

Chain of Serine/threonine-protein kinase B-raf (Homo sapiens), P15056 [V600E] (P15056 whole entry V600E): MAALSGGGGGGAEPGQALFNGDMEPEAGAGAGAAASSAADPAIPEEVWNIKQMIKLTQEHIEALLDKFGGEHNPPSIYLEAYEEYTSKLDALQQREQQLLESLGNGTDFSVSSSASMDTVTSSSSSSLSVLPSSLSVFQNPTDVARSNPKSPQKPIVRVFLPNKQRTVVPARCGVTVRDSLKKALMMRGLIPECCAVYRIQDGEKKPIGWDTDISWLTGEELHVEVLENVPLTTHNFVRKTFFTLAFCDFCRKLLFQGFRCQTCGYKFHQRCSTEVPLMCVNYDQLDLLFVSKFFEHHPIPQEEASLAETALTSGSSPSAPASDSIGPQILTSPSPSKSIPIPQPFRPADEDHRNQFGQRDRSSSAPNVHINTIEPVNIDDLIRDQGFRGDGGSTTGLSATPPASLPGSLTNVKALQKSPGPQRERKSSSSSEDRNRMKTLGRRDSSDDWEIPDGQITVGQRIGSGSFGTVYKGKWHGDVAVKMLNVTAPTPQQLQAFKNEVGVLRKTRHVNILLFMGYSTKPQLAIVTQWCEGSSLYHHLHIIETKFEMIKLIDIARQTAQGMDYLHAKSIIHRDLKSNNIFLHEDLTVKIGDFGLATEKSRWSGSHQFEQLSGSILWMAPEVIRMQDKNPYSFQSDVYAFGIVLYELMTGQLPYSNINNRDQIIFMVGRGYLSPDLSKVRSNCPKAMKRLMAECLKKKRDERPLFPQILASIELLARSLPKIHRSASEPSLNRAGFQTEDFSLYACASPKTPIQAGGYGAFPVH
Chain of Serine/threonine-protein kinase B-raf (P15056 2-766 V600E limits assumed): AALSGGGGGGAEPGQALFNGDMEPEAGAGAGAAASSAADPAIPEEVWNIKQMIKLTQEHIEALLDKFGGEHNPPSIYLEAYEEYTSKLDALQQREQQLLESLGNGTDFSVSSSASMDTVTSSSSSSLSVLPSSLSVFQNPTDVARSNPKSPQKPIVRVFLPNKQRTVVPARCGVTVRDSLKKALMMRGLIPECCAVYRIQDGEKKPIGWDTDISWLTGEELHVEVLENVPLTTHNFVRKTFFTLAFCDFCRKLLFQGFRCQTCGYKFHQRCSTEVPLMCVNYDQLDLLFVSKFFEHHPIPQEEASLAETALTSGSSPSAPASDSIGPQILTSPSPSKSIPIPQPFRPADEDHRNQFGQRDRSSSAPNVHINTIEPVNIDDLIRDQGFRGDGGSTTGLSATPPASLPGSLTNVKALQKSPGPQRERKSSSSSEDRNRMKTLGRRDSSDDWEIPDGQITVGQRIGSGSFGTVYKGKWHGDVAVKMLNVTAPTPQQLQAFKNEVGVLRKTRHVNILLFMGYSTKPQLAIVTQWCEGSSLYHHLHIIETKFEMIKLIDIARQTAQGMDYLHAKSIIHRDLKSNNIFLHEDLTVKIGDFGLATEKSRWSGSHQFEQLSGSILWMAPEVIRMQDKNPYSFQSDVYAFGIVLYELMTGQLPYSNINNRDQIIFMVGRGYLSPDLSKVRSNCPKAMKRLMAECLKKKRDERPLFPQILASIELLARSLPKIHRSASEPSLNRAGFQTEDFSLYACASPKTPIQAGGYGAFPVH
Chain of RAF proto-oncogene serine/threonine-protein kinase (Homo sapiens) (P04049 whole entry): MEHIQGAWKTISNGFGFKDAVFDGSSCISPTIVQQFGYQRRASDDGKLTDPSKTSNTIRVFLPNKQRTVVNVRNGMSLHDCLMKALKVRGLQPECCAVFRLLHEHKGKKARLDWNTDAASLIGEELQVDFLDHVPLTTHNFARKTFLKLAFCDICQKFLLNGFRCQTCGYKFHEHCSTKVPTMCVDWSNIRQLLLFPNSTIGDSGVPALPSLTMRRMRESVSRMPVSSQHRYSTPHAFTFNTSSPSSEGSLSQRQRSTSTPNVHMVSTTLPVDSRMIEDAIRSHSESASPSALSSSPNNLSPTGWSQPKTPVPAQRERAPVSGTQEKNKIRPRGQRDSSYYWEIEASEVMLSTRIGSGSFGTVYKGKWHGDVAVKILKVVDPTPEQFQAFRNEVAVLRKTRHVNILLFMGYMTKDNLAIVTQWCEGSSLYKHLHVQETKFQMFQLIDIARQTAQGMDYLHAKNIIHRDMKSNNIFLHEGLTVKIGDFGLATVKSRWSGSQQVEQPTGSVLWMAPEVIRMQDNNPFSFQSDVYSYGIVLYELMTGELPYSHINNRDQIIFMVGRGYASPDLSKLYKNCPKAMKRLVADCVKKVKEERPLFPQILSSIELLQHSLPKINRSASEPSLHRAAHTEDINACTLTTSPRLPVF
Chain of Dual specificity mitogen-activated protein kinase kinase 1 (Homo sapiens) (Q02750 whole entry): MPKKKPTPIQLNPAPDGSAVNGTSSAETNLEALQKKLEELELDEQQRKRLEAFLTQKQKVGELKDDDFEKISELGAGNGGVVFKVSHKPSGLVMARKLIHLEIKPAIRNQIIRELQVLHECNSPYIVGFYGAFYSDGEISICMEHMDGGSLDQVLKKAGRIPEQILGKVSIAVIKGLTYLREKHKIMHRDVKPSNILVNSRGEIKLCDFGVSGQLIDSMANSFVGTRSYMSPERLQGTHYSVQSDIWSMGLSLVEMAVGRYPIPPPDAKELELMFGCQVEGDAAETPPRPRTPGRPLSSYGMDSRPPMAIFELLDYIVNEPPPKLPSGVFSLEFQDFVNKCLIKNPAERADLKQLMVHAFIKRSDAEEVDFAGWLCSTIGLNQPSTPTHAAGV
Chain of Mast/stem cell growth factor receptor Kit (Homo sapiens) (P10721 whole entry): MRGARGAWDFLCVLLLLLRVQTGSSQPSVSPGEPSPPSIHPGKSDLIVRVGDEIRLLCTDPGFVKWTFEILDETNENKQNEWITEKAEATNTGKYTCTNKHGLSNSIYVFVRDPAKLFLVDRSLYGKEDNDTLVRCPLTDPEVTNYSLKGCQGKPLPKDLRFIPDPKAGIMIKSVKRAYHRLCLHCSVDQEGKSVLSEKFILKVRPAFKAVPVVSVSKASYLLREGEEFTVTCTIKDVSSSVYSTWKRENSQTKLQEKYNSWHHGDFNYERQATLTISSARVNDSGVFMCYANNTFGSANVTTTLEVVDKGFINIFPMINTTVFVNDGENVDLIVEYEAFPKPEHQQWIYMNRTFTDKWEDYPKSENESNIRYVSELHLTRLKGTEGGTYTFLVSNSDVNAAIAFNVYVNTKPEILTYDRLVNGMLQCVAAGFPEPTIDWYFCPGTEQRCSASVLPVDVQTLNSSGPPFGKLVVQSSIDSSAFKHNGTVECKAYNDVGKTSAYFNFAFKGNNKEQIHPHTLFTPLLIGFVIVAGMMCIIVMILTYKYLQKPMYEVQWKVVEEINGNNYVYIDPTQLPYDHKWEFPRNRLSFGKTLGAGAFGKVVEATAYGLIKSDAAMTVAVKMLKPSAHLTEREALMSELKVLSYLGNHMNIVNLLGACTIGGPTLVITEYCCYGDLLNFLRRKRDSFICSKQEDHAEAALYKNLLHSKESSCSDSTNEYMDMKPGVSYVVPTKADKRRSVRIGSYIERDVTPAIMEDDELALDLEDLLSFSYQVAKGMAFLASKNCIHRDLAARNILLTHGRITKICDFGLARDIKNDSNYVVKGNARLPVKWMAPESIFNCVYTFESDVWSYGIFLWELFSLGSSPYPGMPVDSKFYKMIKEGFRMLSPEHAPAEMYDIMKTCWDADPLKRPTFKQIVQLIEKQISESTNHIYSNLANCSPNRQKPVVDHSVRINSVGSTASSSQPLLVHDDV
Chain of Serine/threonine-protein kinase A-Raf (Homo sapiens) (P10398 whole entry): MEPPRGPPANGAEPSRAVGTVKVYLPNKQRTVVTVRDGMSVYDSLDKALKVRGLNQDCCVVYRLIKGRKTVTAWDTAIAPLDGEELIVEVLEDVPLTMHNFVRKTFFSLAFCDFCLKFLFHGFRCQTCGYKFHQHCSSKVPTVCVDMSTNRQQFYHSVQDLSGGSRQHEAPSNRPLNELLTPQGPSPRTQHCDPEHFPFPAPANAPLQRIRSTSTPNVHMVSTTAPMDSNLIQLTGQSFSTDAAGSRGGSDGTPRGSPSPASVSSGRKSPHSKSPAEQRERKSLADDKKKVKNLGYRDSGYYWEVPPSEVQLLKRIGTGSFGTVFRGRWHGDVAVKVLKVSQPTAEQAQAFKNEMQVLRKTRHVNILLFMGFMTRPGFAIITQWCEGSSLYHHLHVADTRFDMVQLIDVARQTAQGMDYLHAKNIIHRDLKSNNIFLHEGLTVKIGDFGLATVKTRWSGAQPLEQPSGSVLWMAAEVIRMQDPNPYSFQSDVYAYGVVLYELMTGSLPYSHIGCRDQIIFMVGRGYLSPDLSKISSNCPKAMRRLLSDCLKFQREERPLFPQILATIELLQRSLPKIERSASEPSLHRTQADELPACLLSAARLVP

SMILES: COc1cc(Cl)cc(-c2nn(-c3cccc(NC(=O)Nc4cc(C(F)(F)F)cc(C(F)(F)F)c4)c3)cc2-c2ccncc2)c1
- IC50 [1]: 230 nM
- GI50 ([1]; read-out: GI50): 228 nM
- CC50 [1, 18]: 2010 nM
- TGI ([1]; read-out: TGI): 780 nM
- GI50 ([1]; read-out: pGI50 (converted)): 229 nM
- CC50 [1, 19]: 20000 nM
- TGI ([1]; read-out: pTGI (converted)): 776 nM
- IC50 [2]: 680 nM
- GI50 ([2]; read-out: GI50): 654 nM
- CC50 [2, 18]: 42.5 nM
- TGI ([2]; read-out: TGI): 14600 nM
- GI50 ([2]; read-out: pGI50 (converted)): 708 nM
- CC50 [2, 19]: 42700 nM
- TGI ([2]; read-out: pTGI (converted)): 14800 nM
- IC50 [3]: > 100000 nM
- inhibition [4]: 49.2%
- inhibition [5]: 1.25%
- inhibition [6]: 57.8%
- inhibition [7]: 3.5%
- inhibition [8]: -7.47%
- inhibition [9]: 10.7%
- inhibition [10]: -7.99%
- inhibition [11]: 16.8%
- inhibition [12]: 94.7%
- IC50 [13]: 390 nM
- fold change (FC) [14]: 2.79
- growth at 0.01 µM [15]: 93%
- growth at 1 µM [16]: -10%
- growth at 1 µM [17]: 42%
